Test results published in ChEMBL document CHEMBL1201862, “PubChem BioAssay data set” (2004).
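Protocol summary: plate cells (96-well), add compound at 5 concentrations, incubate 48 h, interpolate endpoints linearly. GI50 = concentration required for 50% inhibition of growth.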 Active and inactive are the calls of the source. Cut-off read from the data, not from the text of the source: active = GI50 up to about 1.1 µM and inactive = higher.

Legend:
Assay in all cases: inhibition of tumour cell growth, NCI panel, 48 h
786-0 = system: 786-0
BT-549 = system: BT-549
COLO 205 = system: COLO 205
EKVX = system: EKVX
HCT-116 = system: HCT-116
HOP-62 = system: HOP-62
K562 = system: K562
NCI/ADR-RES = system: NCI/ADR-RES
OVCAR-4 = system: OVCAR-4
PC-3 = system: PC-3
RPMI-8226 = system: RPMI-8226
RXF 393 = system: RXF 393
SF-268 = system: SF-268
SK-OV-3 = system: SK-OV-3
SNB-19 = system: SNB-19
UACC-62 = system: UACC-62
UO-31 = system: UO-31
DU-145 = system: DU-145
LOX IMVI = system: LOX IMVI
NCI-H522 = system: NCI-H522

Row | Compound | GI50 (786-0) | GI50 (BT-549) | GI50 (COLO 205) | GI50 (EKVX) | GI50 (HCT-116) | GI50 (HOP-62) | GI50 (K562) | GI50 (NCI/ADR-RES) | GI50 (OVCAR-4) | GI50 (PC-3) | GI50 (RPMI-8226) | GI50 (RXF 393) | GI50 (SF-268) | GI50 (SK-OV-3) | GI50 (SNB-19) | GI50 (UACC-62) | GI50 (UO-31) | GI50 (DU-145) | GI50 (LOX IMVI) | GI50 (NCI-H522)
1 | CCOc1ccc(N/C(=C(/C(Cl)=C(/Cl)NC(C)(C)C)[N+](=O)[O-])n2nnc3ccccc32)cc1 | 18 µM (inactive) | 17.9 µM (inactive) | 21.1 µM (inactive) | 39 µM (inactive) | 18.6 µM (inactive) | 70 µM (inactive) | > 100 µM (inactive) | 32.4 µM (inactive) | 25.6 µM (inactive) | 28.7 µM (inactive) | 23.9 µM (inactive) | 20.1 µM (inactive) | 16.7 µM (inactive) | 59.8 µM (inactive) | 47.6 µM (inactive) | 22.8 µM (inactive) | 29.9 µM (inactive) | – | – | –
2 | CCOC(=O)c1c(NS(=O)(=O)c2ccc(C)cc2)sc2c1CCCC2 | 35.2 µM (inactive) | 31.7 µM (inactive) | 19 µM (inactive) | 32.6 µM (inactive) | 21.4 µM (inactive) | 23.2 µM (inactive) | 20.6 µM (inactive) | 27 µM (inactive) | – | 16.2 µM (inactive) | 10.2 µM (inactive) | – | 26.1 µM (inactive) | – | 35.1 µM (inactive) | 17.5 µM (inactive) | 21.1 µM (inactive) | 33.6 µM (inactive) | – | –
3 | CC(=O)Nc1ncc(Sc2ccccc2C(=O)O)s1 | > 100 µM (inactive) | > 100 µM (inactive) | > 100 µM (inactive) | > 100 µM (inactive) | > 100 µM (inactive) | > 100 µM (inactive) | > 100 µM (inactive) | > 100 µM (inactive) | – | > 100 µM (inactive) | > 100 µM (inactive) | > 100 µM (inactive) | > 100 µM (inactive) | – | > 100 µM (inactive) | > 100 µM (inactive) | > 100 µM (inactive) | > 100 µM (inactive) | > 100 µM (inactive) | –
4 | COC(=O)[C@](NC(=O)OCc1ccccc1)([C@@H](C)Sc1ccc(C)cc1)C(F)(F)F | 59.7 µM (inactive) | 34.9 µM (inactive) | 19.2 µM (inactive) | 57.9 µM (inactive) | 35.4 µM (inactive) | > 100 µM (inactive) | 23.6 µM (inactive) | 36 µM (inactive) | 32.3 µM (inactive) | 43 µM (inactive) | 29.2 µM (inactive) | – | 38.4 µM (inactive) | > 100 µM (inactive) | > 100 µM (inactive) | 39.2 µM (inactive) | 51.9 µM (inactive) | 24.7 µM (inactive) | 39 µM (inactive) | 25.1 µM (inactive)
5 | O=c1cccc(C2CC(CO)C3CCCCN3C2)[nH]1 (configuration not stated) | > 100 µM (inactive) | > 100 µM (inactive) | > 100 µM (inactive) | > 100 µM (inactive) | > 100 µM (inactive) | – | > 100 µM (inactive) | > 100 µM (inactive) | > 100 µM (inactive) | > 100 µM (inactive) | > 100 µM (inactive) | – | > 100 µM (inactive) | > 100 µM (inactive) | > 100 µM (inactive) | > 100 µM (inactive) | > 100 µM (inactive) | > 100 µM (inactive) | > 100 µM (inactive) | > 100 µM (inactive)
6 | COc1ccc(OC2OC(CO)C(OCc3ccccc3)C(OCc3ccccc3)C2OCc2ccccc2)cc1 (configuration not stated) | 39.5 µM (inactive) | > 100 µM (inactive) | 44.4 µM (inactive) | 11.4 µM (inactive) | 14.8 µM (inactive) | > 100 µM (inactive) | 6.1 µM (inactive) | 61.9 µM (inactive) | – | 1.48 µM (inactive) | > 100 µM (inactive) | – | 22.3 µM (inactive) | > 100 µM (inactive) | > 100 µM (inactive) | > 100 µM (inactive) | 41 µM (inactive) | > 100 µM (inactive) | > 100 µM (inactive) | 40 µM (inactive)
7 | CN(C)CCNC(=O)c1cccc2c(NC(CS)C(=O)O)c3ccccc3nc12 (configuration not stated) | 6.64 µM (inactive) | 14.5 µM (inactive) | 3.01 µM (inactive) | 11.3 µM (inactive) | 4.73 µM (inactive) | 5.32 µM (inactive) | 3.79 µM (inactive) | 9.82 µM (inactive) | 17.1 µM (inactive) | 6.07 µM (inactive) | 7.52 µM (inactive) | – | 7.94 µM (inactive) | 9.86 µM (inactive) | 7.52 µM (inactive) | 21.6 µM (inactive) | 3.6 µM (inactive) | 10.5 µM (inactive) | 4.41 µM (inactive) | 4.19 µM (inactive)
8 | CCC/C(=N\NC(=S)N1CC2CCC(CC2)C1)c1ccccn1 | 0.438 µM (active) | 0.3 µM (active) | 0.0205 µM (active) | 0.0434 µM (active) | 0.0359 µM (active) | 0.713 µM (active) | 0.00581 µM (active) | – | 0.395 µM (active) | 0.0906 µM (active) | 0.00822 µM (active) | 0.51 µM (active) | 0.641 µM (active) | 0.927 µM (active) | 0.571 µM (active) | 0.0479 µM (active) | 1.1 µM (active) | 1.49 µM (inactive) | 0.542 µM (active) | 0.282 µM (active)
